“And” between values parts separate entries of the source, which are not always exact repeats. Equal values may be shown once.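 Interpolation was linear, between the two tested concentrations surrounding the appropriate level; five concentrations were tested over 48 hours in 96-well plates. At the GI50, growth is halved. TGI: total growth inhibition.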 Where a SMILES comes first, the peptide text is derived from it.
Legend:
Experiment in all cases: inhibition of tumour cell growth, NCI panel, 48 h
A498 renal = test system: A498 renal
CCRF-CEM leukemia = test system: CCRF-CEM leukemia
HCC-2998 colon = test system: HCC-2998 colon
HCT-15 colon = test system: HCT-15 colon
HOP-62 NSCLC = test system: HOP-62 NSCLC
RXF 393 renal = test system: RXF 393 renal
SF-539 CNS = test system: SF-539 CNS
SK-OV-3 ovarian = test system: SK-OV-3 ovarian
TK-10 renal = test system: TK-10 renal
UO-31 renal = test system: UO-31 renal

SMILES | TGI (A498 renal) | TGI (CCRF-CEM leukemia) | TGI (HCC-2998 colon) | TGI (HCT-15 colon) | TGI (HOP-62 NSCLC) | TGI (RXF 393 renal) | TGI (SF-539 CNS) | TGI (SK-OV-3 ovarian) | TGI (TK-10 renal) [µM] | TGI (UO-31 renal) | GI50 (A498 renal) [µM] | GI50 (CCRF-CEM leukemia) [µM] | GI50 (HCC-2998 colon) [µM] | GI50 (HCT-15 colon) [µM] | GI50 (HOP-62 NSCLC) [µM] | GI50 (RXF 393 renal) [µM] | GI50 (SF-539 CNS) [µM] | GI50 (SK-OV-3 ovarian) [µM] | GI50 (TK-10 renal) [µM] | GI50 (UO-31 renal) [µM]
COC(=O)C1(C(=O)OC)CC2c3c(c4ccccc4n3C)CC(C1=O)N2Cc1ccccc1 (stereo unspecified) | > 100 µM | > 100 µM | > 100 µM | > 100 µM | > 100 µM | > 100 µM | > 100 µM | > 100 µM | > 100 | > 100 µM | – | – | – | – | – | – | – | – | – | –
ClCc1ccc(-c2ccc(Cn3cnc4c(Cl)nc(Cl)nc43)cc2)cc1 | 11.4 µM | 5.9 µM | 2.9 µM | 3.35 µM | 4 µM | 3.38 µM | 4.99 µM | 22.6 µM | 4.42 | 8.18 µM | 2.33 | 2.36 | 1.41 | 1.67 | 1.92 | 1.67 | 2.14 | 10.6 | 2.11 | 3.32
CC(C)CC(NC(=O)C(CC(C)C)NC(=O)C(Cc1cnc[nH]1)NC(=O)C(C)NC(=O)C(NC(=O)C(C)NC(=O)C(Cc1c[nH]c2ccccc12)NC(=O)C(CCC(=O)O)NC(=O)C(N)Cc1ccccc1)C(C)C)C(N)=O (stereo unspecified) (H-FEWAVAHLL-NH2; configuration not given here) | > 100 µM | > 100 µM | > 100 µM | > 100 µM | > 100 µM | > 100 µM | > 100 µM | > 100 µM | – | > 100 µM | > 100 | > 100 | > 100 | > 100 | > 100 | > 100 | > 100 | > 100 | – | 70.9
COc1cc(/C=C2\CN(C)C/C(=C\c3cc(OC)c(OC)c(OC)c3)C2=O)cc(OC)c1OC | 1.59 µM | 1.13 µM | 1.22 µM | 0.555 µM | 1.13 µM | 0.389 µM | 1.33 µM | 1.41 µM | 0.771 | 0.818 µM | 0.447 | 0.271 | 0.366 | 0.214 | 0.36 | 0.199 | 0.379 | 0.412 | 0.247 | 0.28
ClC1CCC2OOC1O2 (stereo unspecified) | > 100 µM | > 100 µM | > 100 µM | > 100 µM | > 100 µM | > 100 µM | > 100 µM | > 100 µM | > 100 | > 100 µM | – | – | – | – | – | – | – | – | – | –
CCOC(=O)c1ccc(N(CCOS(C)(=O)=O)CCOS(C)(=O)=O)cc1C | 73.3 µM | > 100 µM | 66.6 µM | > 100 µM | 55 µM | 33.3 µM | > 100 µM | > 100 µM | > 100 | 45.9 µM | 24.1 | 10 | 28.1 | 28.2 | 17.6 | 17.8 | 23.9 | 33.6 | 50.7 | 23.1
O=C1OCc2c1cc(F)cc2[N+](=O)[O-] | > 100 µM | > 100 µM | > 100 µM | > 100 µM | > 100 µM | > 100 µM | > 100 µM | > 100 µM | – | > 100 µM | > 100 | > 100 | > 100 | > 100 | > 100 | > 100 | > 100 | > 100 | – | > 100
C[C@@H](CO)OCOCc1ccccc1 | > 100 µM | > 100 µM | > 100 µM | > 100 µM | > 100 µM | > 100 µM | > 100 µM | > 100 µM | – | > 100 µM | – | – | – | – | – | – | – | – | – | –
NC(=O)N/N=C(\C(=O)C(=O)Nc1ccc(Cl)c(C(F)(F)F)c1)c1nc2ccc(C(=O)c3ccccc3)cc2[nH]c1=O | > 100 µM | > 100 µM | > 100 µM | > 100 µM | – | > 100 µM | > 100 µM | > 100 µM | > 100 | > 100 µM | – | – | – | – | – | – | – | – | – | –
COc1cc(/C=C2\[C@H]3c4c(c(OC)c(C)c(OC)c4OC)C[C@@H](C(=O)N2Cc2ccccc2)N3C(=O)OC(C)C)c(OC)c(C)c1OC | > 100 µM | > 100 µM | > 100 µM | – | > 100 µM | > 100 µM | > 100 µM | > 100 µM | > 100 | > 100 µM | – | – | – | – | – | – | – | – | – | –
CC(=O)O[C@H]1C(=O)O[C@@H]2C[C@H]3C(C)=CC(=O)[C@@H](O)[C@]3(C)[C@H]3[C@@]4(O)OC[C@]32[C@@H]1[C@@H](C)[C@H]4O | 1.19 µM and 0.385 µM | 0.073 µM and 0.572 µM | 0.548 µM and 0.271 µM | 0.738 µM and 1.03 µM | 0.07 µM and 0.314 µM | 0.503 µM and 0.108 µM | 0.0151 µM and 0.0663 µM | 4.04 µM and 3.35 µM | – | 1.21 µM and 4.45 µM | 0.187 | 0.015 | 0.032 | 0.0399 | < 0.0122 | 0.0481 | < 0.01 | 0.237 | – | 0.0958
